Where “and” joins values, the source holds several entries; their conditions need not be identical. Equal values may be shown once. Inconclusive results and toxic doses are left out. Rule as the data show it: active = T/C of 150% or more; inactive = T/C below 125%.
Tested on: L1210 leukemia ip in BDF1 mice, survival T/C
Test: NCI In Vivo Anticancer Drug Screen. Data for tumor model L1210 Leukemia (intraperitoneal) in B6D2F1 (BDF1) mice
Conditions: endpoint: mean survival time, higher = longer survival
Procedure, shortened: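 Ratio derived from survival: compound-dosed mice over vehicle-dosed mice, all bearing a transplantable tumor.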

[1] = dose: 25.0 mg/kg/injection, schedule: Q04DX003 (ip), vehicle: saline
[2] = dose: 50.0 mg/kg/injection, schedule: Q04DX003 (ip), vehicle: saline
[3] = dose: 100.0 mg/kg/injection, schedule: Q01DX009 (ip), vehicle: Klucel (hydroxypropylcellulose) (HPC)
[4] = dose: 200.0 mg/kg/injection, schedule: Q01DX009 (ip), vehicle: Klucel (hydroxypropylcellulose) (HPC)
[5] = dose: 400.0 mg/kg/injection, schedule: Q01DX009 (ip), vehicle: Klucel (hydroxypropylcellulose) (HPC)
[6] = dose: 100.0 mg/kg/injection, schedule: Q01DX001 (ip), vehicle: saline
[7] = dose: 200.0 mg/kg/injection, schedule: Q01DX001 (ip), vehicle: saline
[8] = dose: 400.0 mg/kg/injection, schedule: Q01DX001 (ip), vehicle: saline
[9] = dose: 100.0 mg/kg/injection, schedule: Q01DX001 (ip), vehicle: Klucel (hydroxypropylcellulose) (HPC)
[10] = dose: 200.0 mg/kg/injection, schedule: Q01DX001 (ip), vehicle: Klucel (hydroxypropylcellulose) (HPC)
[11] = dose: 25.0 mg/kg/injection, schedule: Q04DX003 (ip), vehicle: Klucel (hydroxypropylcellulose) (HPC)
[12] = dose: 50.0 mg/kg/injection, schedule: Q04DX003 (ip), vehicle: Klucel (hydroxypropylcellulose) (HPC)
[13] = dose: 100.0 mg/kg/injection, schedule: Q04DX003 (ip), vehicle: Klucel (hydroxypropylcellulose) (HPC)
[14] = dose: 200.0 mg/kg/injection, schedule: Q04DX003 (ip), vehicle: Klucel (hydroxypropylcellulose) (HPC)
[15] = dose: 100.0 mg/kg/injection, schedule: Q01DX001 (ip), vehicle: carboxymethylcellulose (CMC)
[16] = dose: 200.0 mg/kg/injection, schedule: Q01DX001 (ip), vehicle: carboxymethylcellulose (CMC)
[17] = dose: 400.0 mg/kg/injection, schedule: Q01DX001 (ip), vehicle: carboxymethylcellulose (CMC)
[18] = dose: 100.0 mg/kg/injection, schedule: Q01DX009 (ip), vehicle: saline with Tween-80
[19] = dose: 200.0 mg/kg/injection, schedule: Q01DX009 (ip), vehicle: saline with Tween-80
[20] = dose: 400.0 mg/kg/injection, schedule: Q01DX009 (ip), vehicle: saline with Tween-80
[21] = dose: 400.0 mg/kg/injection, schedule: Q04DX003 (ip), vehicle: Klucel (hydroxypropylcellulose) (HPC)
[22] = dose: 100.0 mg/kg/injection, schedule: Q04DX003 (ip), vehicle: saline with Tween-80
[23] = dose: 200.0 mg/kg/injection, schedule: Q04DX003 (ip), vehicle: saline with Tween-80

Measured: T/C

N#CSCC(=O)c1ccccc1
inactive: dose: 3.0 mg/kg/injection, schedule: Q01DX009 (ip), vehicle: Klucel (hydroxypropylcellulose) (HPC) 104 % of control | dose: 6.0 mg/kg/injection, schedule: Q01DX009 (ip), vehicle: Klucel (hydroxypropylcellulose) (HPC) 101 % of control | dose: 12.0 mg/kg/injection, schedule: Q01DX001 (ip), vehicle: saline 105 % of control | dose: 12.0 mg/kg/injection, schedule: Q01DX009 (ip), vehicle: Klucel (hydroxypropylcellulose) (HPC) 107 % of control | dose: 12.0 mg/kg/injection, schedule: Q04DX003 (ip), vehicle: saline 104 % of control | dose: 25.0 mg/kg/injection, schedule: Q01DX001 (ip), vehicle: saline 113 % of control | [1] 106 % of control | dose: 50.0 mg/kg/injection, schedule: Q01DX001 (ip), vehicle: saline 97 % of control | [2] 101 % of control

CCN(CC)CC(=O)NCC(CCN(C)C)(c1ccc2ccccc2c1)C(C)C (stereo not drawn)
inactive: [1] 99 % of control | dose: 50.0 mg/kg/injection, schedule: Q04DX002 (ip), vehicle: saline 97 % of control | [2] 94 % of control | dose: 100.0 mg/kg/injection, schedule: Q01DX009 (ip), vehicle: saline 98 % of control | dose: 100.0 mg/kg/injection, schedule: Q04DX002 (ip), vehicle: saline 106 % of control | dose: 100.0 mg/kg/injection, schedule: Q04DX003 (ip), vehicle: saline 97 % of control | dose: 200.0 mg/kg/injection, schedule: Q04DX002 (ip), vehicle: saline 86 % of control

O=C(Nc1ccc(F)c([N+](=O)[O-])c1)Nc1cccc2c(O)cccc12
inactive: [3] 101 % of control | [4] 103 % of control | [5] 97 % of control

CC(O)CN(Cc1c(O)ccc2ccccc12)CC(C)OS(C)(=O)=O (stereo not drawn)
inactive: [6] 97 % of control | [7] 93 % of control | [8] 95 % of control

CSCC(NC(C)=O)C(=O)O (stereo not drawn)
inactive: dose: 50.0 mg/kg/injection, schedule: Q01DX001 (ip), vehicle: Klucel (hydroxypropylcellulose) (HPC) 100 % of control | [9] 98 % of control | [10] 91 % of control

CC(C)NC(=O)c1ccc(/C=N/N(C)C)cc1
inactive: [11] 104 % of control | [12] 106 % of control | [13] 95 % of control | [14] 101 % of control

CSc1cc2c(cc1NC(C)=O)Cc1ccccc1-2
inactive: [15] 93 % of control | [16] 95 % of control | [17] 95 % of control

OC1(c2cccc(C(F)(F)F)c2)CCN(C2CC2)CC1
inactive: dose: 12.5 mg/kg/injection, schedule: Q04DX003 (ip), vehicle: Klucel (hydroxypropylcellulose) (HPC) 104 % of control | [11] 105 % of control | [12] 100 % of control

COc1ccc(OCC(C)=O)cc1
inactive: [18] 97 % of control | [19] 100 % of control | [20] 100 % of control

OC1CCC2C3CC=CC3C12 (stereo not drawn)
inactive: dose: 75.0 mg/kg/injection, schedule: Q01DX001 (ip), vehicle: other 93 % of control | dose: 150.0 mg/kg/injection, schedule: Q01DX001 (ip), vehicle: other 98 % of control | dose: 300.0 mg/kg/injection, schedule: Q01DX001 (ip), vehicle: other 106 % of control

Cc1nc2cc(N=Cc3ccc(N(CCCl)CCCl)cc3Cl)ccc2n1C
inactive: dose: 100.0 mg/kg/injection, schedule: Q04DX002 (ip), vehicle: Klucel (hydroxypropylcellulose) (HPC) 104 % of control | dose: 200.0 mg/kg/injection, schedule: Q04DX002 (ip), vehicle: Klucel (hydroxypropylcellulose) (HPC) 104 % of control | dose: 400.0 mg/kg/injection, schedule: Q04DX002 (ip), vehicle: Klucel (hydroxypropylcellulose) (HPC) 104 % of control

CCN(CC)C(=O)c1cc([N+](=O)[O-])ccc1OCc1ccccc1
inactive: dose: 25.0 mg/kg/injection, schedule: Q04DX002 (ip), vehicle: saline with Tween-80 98 % of control | dose: 50.0 mg/kg/injection, schedule: Q04DX002 (ip), vehicle: saline with Tween-80 98 % of control | dose: 100.0 mg/kg/injection, schedule: Q04DX002 (ip), vehicle: saline with Tween-80 110 % of control and 91 % of control | dose: 200.0 mg/kg/injection, schedule: Q04DX002 (ip), vehicle: saline with Tween-80 89 % of control | dose: 400.0 mg/kg/injection, schedule: Q04DX002 (ip), vehicle: saline with Tween-80 95 % of control

CCCCC(C#N)C(=O)OCC (stereo not drawn)
inactive: [13] 97 % of control | [14] 94 % of control | [21] 87 % of control

Cc1cc([N+](=O)[O-])ccc1P(=O)(O)O
inactive: [22] 100 % of control | [23] 108 % of control

CCCCN(CCCC)c1ccc(/C=C/c2ccncc2)cc1
inactive: [9] 95 % of control | [3] 93 % of control | [10] 101 % of control | [4] 101 % of control | dose: 400.0 mg/kg/injection, schedule: Q01DX001 (ip), vehicle: Klucel (hydroxypropylcellulose) (HPC) 96 % of control | [5] 90 % of control

NC(N)=NNO
inactive: [6] 88 % of control | [7] 95 % of control | [8] 101 % of control

CON(C)c1nc(Cl)nc(N(C)OC)n1
inactive: [15] 96 % of control | [3] 97 % of control | [16] 94 % of control | [4] 105 % of control | [17] 107 % of control | [5] 105 % of control

Cc1ccc(CO)cc1C
inactive: dose: 50.0 mg/kg/injection, schedule: Q04DX003 (ip), vehicle: saline with Tween-80 95 % of control | [22] 104 % of control | [23] 93 % of control

CCCCCCCCCCCCCCCCC(C(=O)OCC)C(=O)c1ccccc1 (stereo not drawn)
inactive: [22] 95 % of control | [23] 95 % of control | dose: 400.0 mg/kg/injection, schedule: Q04DX003 (ip), vehicle: saline with Tween-80 91 % of control

COC(=O)CNC(=O)C(CSCc1ccccc1)NC(=O)OCc1ccccc1 (stereo not drawn)
inactive: [13] 94 % of control | [14] 89 % of control | [21] 99 % of control

COC1=NS(=O)(=O)C2CCCC/C=C\C2O1 (stereo not drawn)
inactive: dose: 150.0 mg/kg/injection, schedule: Q04DX002 (ip), vehicle: Klucel (hydroxypropylcellulose) (HPC) 110 % of control | dose: 300.0 mg/kg/injection, schedule: Q04DX002 (ip), vehicle: Klucel (hydroxypropylcellulose) (HPC) 103 % of control

Cc1cc(CC(O)(C(F)(F)Cl)C(F)(F)Cl)cc(C)n1
inactive: [18] 97 % of control | [19] 94 % of control | [20] 95 % of control

CCCNC(=O)c1ccc(N)cc1
inactive: [6] 104 % of control | [7] 97 % of control | [8] 97 % of control

O=C(O)CS(=O)(=O)Cc1ccccc1
inactive: [22] 97 % of control | [23] 90 % of control

— PubChem BioAssay AID248 (DTP/NCI, 2004)
